From patent US7279444B2, “Substituted benzoylpyrazoles” (Bayer CropScience GmbH, priority 1999, dated 2007)
Marks after values point to notes of the source that are not given here.

Assay: log P by HPLC on reversed-phase column (C 18), acidic range
Type: physicochemical
Procedure: Temperature: 43° C. […] The log P values given in Table 3 were determined in accordance with EEC Directive 79/831 Annex V.A8 by HPLC (High Performance Liquid Chromatography) on a reversed-phase column (C 18). Temperature: 43° C. […] The log P values given in Tables 4 were determined in accordance with EEC Directive 79/831 Annex V.A8 by HPLC (High Performance Liquid Chromatography) on a reversed-phase column (C 18). Temperature: 43° C.

| SMILES | chromatographic logP (reversed-phase HPLC column (C 18), pH=2) | logP |
| --- | --- | --- |
| CCn1ncc(C(=O)c2ccc(-n3nc(C(F)(F)F)n(C)c3=O)cc2Cl)c1O [Example 1, 4-methyl-5-trifluoromethyl-2-[3-chloro-4-(1-ethyl-5-hydroxy-pyrazol-4-yl-carbonyl)-phenyl]-2,4-dihydro-3H-1,2,4-triazol-3-one] | 2.63 |  |
| CCn1ncc(C(=O)c2ccc(S(C)(=O)=O)cc2Cn2nc(SC)n(C)c2=O)c1O [Example 4] |  | logP = 1.24^a) |
| CCSc1nn(Cc2cc(C(F)(F)F)ccc2C(=O)c2cnn(CC)c2O)c(=O)n1C [Example 5] |  | logP = 2.58^a) |
| CCn1ncc(C(=O)c2ccc(C(F)(F)F)cc2Cn2nc(SC(C)C)n(C)c2=O)c1O [Example 6] |  | logP = 2.90^a) |
| CCn1ncc(C(=O)c2ccc(C(F)(F)F)cc2Cn2nc(OC)n(C3CC3)c2=O)c1O [Example 7] |  | (IA)logP = 2.28^a) |
| CCn1ncc(C(=O)c2ccc(F)cc2Cn2nc(N(C)C)n(C)c2=O)c1O [Example 8] |  | logP = 1.61^a) |
| Cc1nn(C)c(O)c1C(=O)c1ccc(F)cc1Cn1nc(N(C)C)n(C)c1=O [Example 9] |  | logP = 1.32^a) |
| COc1nn(Cc2cc(F)ccc2C(=O)c2c(C)nn(C)c2O)c(=O)n1C1CC1 [Example 10] |  | (IA)logP = 1.50^a) |
| CCOc1nn(Cc2cc(F)ccc2C(=O)c2c(C)nn(C)c2O)c(=O)n1C1CC1 [Example 11] |  | (IA)logP = 1.80^a) |
| C=CCSc1nn(Cc2cc(Br)ccc2C(=O)c2cnn(CC)c2O)c(=O)n1C [Example 12] |  | (IA)logP = 2.69^a) |
| CCn1ncc(C(=O)c2cc(-n3nc(C(F)(F)F)n(C)c3=O)ccc2C(F)(F)F)c1O [Example 13] |  | logP = 2.83^a) |
| CCn1ncc(C(=O)c2ccccc2-n2nc(C(F)(F)F)n(C)c2=O)c1O [Example 15] |  | logP = 1.95^a) |
| CCn1ncc(C(=O)c2ccc(Cl)cc2-n2nc(C(F)(F)F)n(C)c2=O)c1O [Example 16] |  | logP = 2.47^a) |
| CCn1ncc(C(=O)c2ccc(Cl)c(Cn3nc(C(F)(F)F)n(C)c3=O)c2Cl)c1O [Example 17] |  | logP = 2.30^a) |
| CCn1ncc(C(=O)c2ccc(Cl)c(Cn3nc(SC)n(C)c3=O)c2Cl)c1O [Example 18] |  | logP = 1.91^a) |
| CCOc1nn(Cc2c(Cl)ccc(C(=O)c3cnn(CC)c3O)c2Cl)c(=O)n1C [Example 19] |  | logP = 2.01^a) |

Results, then the molecule that gave them:

| chromatographic logP (reversed-phase HPLC column (C 18), pH=2) | logP | SMILES |
| --- | --- | --- |
|  | (IB)logP = 2.14^a) | CCn1ncc(C(=O)c2ccc(Cl)c(Cn3nc(C4CC4)n(C4CC4)c3=O)c2Cl)c1O [Example 20] |
|  | logP = 1.69^a) | CCn1ncc(C(=O)c2ccc(Cl)c(Cn3nc(OC)n(C)c3=O)c2Cl)c1O [Example 21] |
|  | logP = 2.31^a) | CCn1ncc(C(=O)c2ccc(Cl)c(Cn3nc(OC(C)C)n(C)c3=O)c2Cl)c1O [Example 22] |
|  | logP = 2.33^a) | CCn1ncc(C(=O)c2ccc(Cl)c(Cn3nc(OCC(F)(F)F)n(C)c3=O)c2Cl)c1O [Example 23] |
|  | logP = 1.81^a) | CCn1ncc(C(=O)c2ccc(Cl)c(Cn3nc(Br)n(C)c3=O)c2Cl)c1O [Example 24] |
|  | logP = 1.28^a) | CCn1ncc(C(=O)c2ccc(Cl)c(Cn3ncn(C)c3=O)c2Cl)c1O [Example 25] |
|  | (IB)logP = 1.82^a) | CCn1ncc(C(=O)c2ccc(Cl)c(Cn3nc(C4CC4)n(C)c3=O)c2Cl)c1O [Example 26] |
|  | logP = 2.55^a) | CCn1ncc(C(=O)c2ccc(Br)cc2-n2nc(C(F)(F)F)n(C)c2=O)c1O [Example 27] |
|  | logP = 1.77^a) | CCn1ncc(C(=O)c2ccc(Cl)c(Cn3nc(N(C)C)n(C)c3=O)c2Cl)c1O [Example 28] |
|  | logP = 1.38^a) | CCn1ncc(C(=O)c2ccc(Cl)c(Cn3nc(C)n(C)c3=O)c2Cl)c1O [Example 29] |
|  | logP = 1.55^a) | CCn1ncc(C(=O)c2ccc(Cl)c(Cn3nc4n(c3=O)CCCC4)c2Cl)c1O [Example 30] |
|  | (IB)logP = 1.99^a) | CCn1ncc(C(=O)c2ccc(Cl)c(Cn3nc(OC)n(C4CC4)c3=O)c2Cl)c1O [Example 31] |
|  | (IB)logP = 2.31^a) | CCOc1nn(Cc2c(Cl)ccc(C(=O)c3cnn(CC)c3O)c2Cl)c(=O)n1C1CC1 [Example 32] |
